The text below walks through data of paper PMC6553790 (PLoS Pathogens, 2019).

Test [1] relates to P. falciparum Cam3.II lines. Nature of the test: Stage-specificity 1 hr pulse survival assay. In kind it is cell-based, Plasmodium falciparum. As to conditions: 150 nM. The protocol:
All stage-specificity tests were concluded 72 hr from the start of the experiment. Assays were performed in duplicate. Parasites were prepared by synchronizing ring stages with 5% D-Sorbitol and later isolating the schizonts over a 75% Percoll gradient. These schizonts were allowed to reinvade fresh RBCs at 2% hematocrit. Parasites were tested as purified schizonts, early rings, mid rings, late rings or trophozoites (~45–47, 0–3, 10–13, 18–21 and 24–27 hr post-invasion, respectively), and exposed to drug or DMSO vehicle control in 1 mL volumes. Parasites were seeded at 0.5% parasitemia and 1% hematocrit in a 48-well plate.
Drug-treated parasites were washed as previously described for the RSA0-3h. Briefly, 1 mL cultures were transferred to 15 mL conical tubes, centrifuged at 800×g for 5 minutes to pellet cells, and the culture medium containing drug was carefully removed. Cells were subsequently resuspended in 10 mL drug-free medium, centrifuged, and the wash medium removed. Finally, cells were resuspended in 1 mL of fresh drug-free medium, transferred to a new well, and returned to standard culture conditions for the duration of the assay. Parasitemias were measured by flow cytometry and the survival of drug-treated parasites was calculated as a percent of DMSO-treated control cultures.

The subject of test [2] is P. falciparum Cam3.II lines. Nature of the test: Isobologram analyses (fixed-ratio drug combinations). As to conditions: for Interaction with WLW (isobologram): asynchronous parasites, Cam3.II K13WT and K13C580Y. The class given is cell-based, Plasmodium falciparum. The method, then: Assays were performed with fixed ratios of drug combinations (1:0, 4:1, 2:1, 1:1, 1:2, 1:4, and 0:1), tested in duplicate. Combinations were prepared from 16×IC50 drug stocks and tested across a range of two-fold dilutions. Assays were conducted with asynchronous cultures exposed for 72 hr or with tightly synchronized rings or trophozoites (tested at 0–3 hr or 24–27 hr post-invasion, respectively) exposed for 3 hr. Post-pulse drug washouts were conducted as described above for in vitro determination of IC50 levels. IC50 values were derived for each compound tested alone, and fractional IC50 (FIC50) values were determined for each compound tested in combination (FIC50 = […]) and plotted for each drug combination. For each combination, the mean of the sums of FIC50 values at each combination (mean ΣFIC50) was also calculated and the results illustrated using heat maps.

Another test concerns Plasmodium parasites. Conditions: cited from earlier work.
Setting [3] is: combined with WLL, Asynchronous, 72 hr, Cam3.II K13WT.
Setting [4] is: combined with WLL, Rings, 3 hr exposure, Cam3.II K13C580Y.
Where [5] appears, read: combined with WLL, Rings, 3 hr exposure, Cam3.II K13WT.
Where [6] appears, read: combined with WLL, Trophozoites, 3 hr exposure, Cam3.II K13C580Y.
The mark [7] stands for this setting: combined with WLL, Trophozoites, 3 hr exposure, Cam3.II K13WT.
Where [8] appears, read: combined with WLW, Asynchronous, 72 hr, Cam3.II K13C580Y.
[9] abbreviates: combined with WLW, Asynchronous, 72 hr, Cam3.II K13WT.
Where [10] appears, read: combined with WLW, Rings, 3 hr exposure, Cam3.II K13C580Y.
Where [11] appears, read: combined with WLW, Rings, 3 hr exposure, Cam3.II K13WT.
The mark [12] stands for this setting: combined with WLW, Trophozoites, 3 hr exposure, Cam3.II K13C580Y.
Setting [13] is: combined with WLW, Trophozoites, 3 hr exposure, Cam3.II K13WT.
[14] abbreviates: combined with WLL, Asynchronous, 72 hr, Cam3.II K13C580Y.

Entries after “also recorded” stand apart in the source; their conditions may differ.

Turning to `C[C@H]1[C@@H](O)O[C@@H]2O[C@@]3(C)CC[C@H]4[C@H](C)CC[C@@H]1[C@@]24OO3` [DHA, dihydroartemisinin], the Mean percent survival in test [1] (Early rings (0–3 hpi), Cam3.II K13C580Y) was 57.9 ± 5.6%; in test [1] (Early rings (0–3 hpi), Cam3.II K13WT) it was 46.8 ± 10.6%; in test [1] (Late rings (18–21 hpi), Cam3.II K13C580Y), 13.5 ± 3.1%; in test [1] (Late rings (18–21 hpi), Cam3.II K13WT), 18.9 ± 5.6%; in test [1] (Mid rings (10–13 hpi), Cam3.II K13C580Y), 29.1 ± 3.4%; in test [1] (Mid rings (10–13 hpi), Cam3.II K13WT), 35.4 ± 2.7%. Moreover, the Mean percent survival in test [1] (Schizonts (45–48 hpi), Cam3.II K13C580Y) stood at 71.9 ± 13.6%; in test [1] (Schizonts (45–48 hpi), Cam3.II K13WT), 59.0 ± 5.3%; in test [1] (Trophs (24–27 hpi), Cam3.II K13C580Y) it was 4.1 ± 0.6%; in test [1] (Trophs (24–27 hpi), Cam3.II K13WT), 2.3 ± 0.1%. Also, the “Interaction with WLW (isobologram)” value in test [2] (early rings and trophozoites) is on record as “synergy”. The “Mean of the sums of FIC50 (mean ΣFIC50)” value was 0.89 in test [2] (setting [3]); 0.77 in test [2] (setting [4]); 0.69 in test [2] (setting [5]); 0.68 in test [2] (setting [6]); 0.70 in test [2] (setting [7]); 0.71 in test [2] (setting [8]). Besides, the “Mean of the sums of FIC50 (mean ΣFIC50)” value in test [2] (setting [9]) came to 0.66; in test [2] (setting [10]) it was 0.44; in test [2] (setting [11]) it was 0.43; in test [2] (setting [12]) it was 0.73; in test [2] (setting [13]), 0.69. Moreover, in test [2] (early rings and trophozoites), the “Interaction with WLL (isobologram)” value is given as “Synergy”.

On to `CC(C)(C)NC(=O)C[C@H](NC(=O)CCc1ccccc1)C(=O)NCCNC(=O)c1cccc(-c2ccccc2)c1` [PKS21004], for which the “Resistance of selected parasites, fold increase over the sensitive parent” value in the test on Plasmodium parasites was greater than 130 fold.

Take `Clc1ccc2c(N3CCN(CCCN4CCN(c5ccnc6cc(Cl)ccc56)CC4)CC3)ccnc2c1` [PPQ, piperaquine]: the “Interaction with WLL or WLW” value in test [2] (across asynchronous parasites, early rings and trophozoites) is “Additive to antagonistic; also recorded: antagonism observed in asynchronous parasites and early rings was attenuated in trophozoites”. Besides, the “Mean of the sums of FIC50 (mean ΣFIC50)” value is given as 1.37 in test [2] (setting [14]); 1.52 in test [2] (setting [3]); 1.41 in test [2] (setting [4]); 1.46 in test [2] (setting [5]); 1.23 in test [2] (setting [6]); 1.32 in test [2] (setting [7]). Also, the “Mean of the sums of FIC50 (mean ΣFIC50)” value worked out at 1.33 in test [2] (setting [8]); 1.44 in test [2] (setting [9]); 1.30 in test [2] (setting [10]); 1.20 in test [2] (setting [11]); 1.20 in test [2] (setting [12]); 1.14 in test [2] (setting [13]).

Regarding `C=CC(=O)N1C/C(=C\c2ccc([N+](=O)[O-])cc2)C(=O)/C(=C/c2ccc([N+](=O)[O-])cc2)C1` [b-AP15], in test [2] (early rings and trophozoites), the “Interaction with WLW (isobologram)” value was “synergy”. In addition, the “Mean of the sums of FIC50 (mean ΣFIC50)” value in test [2] (setting [14]) is 1.11; in test [2] (setting [3]) it was 1.05; in test [2] (setting [4]) it was 0.77; in test [2] (setting [5]), 0.80; in test [2] (setting [6]) it was 0.66; in test [2] (setting [7]), 0.67. In addition, the “Mean of the sums of FIC50 (mean ΣFIC50)” value in test [2] (setting [8]) was 0.78; in test [2] (setting [9]) it was 0.86; in test [2] (setting [10]), 0.35; in test [2] (setting [11]), 0.34; in test [2] (setting [12]) it was 0.52; in test [2] (setting [13]), 0.60. Also, in test [2] (early rings and trophozoites), the “Interaction with WLL (isobologram)” value is given as “Synergy”.
